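Tested at 5 concentrations; 48 h exposure; 96-well plates; endpoints linearly interpolated, else capped at highest concentration. GI50: concentration for 50% inhibition of growth.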 Calls of active or inactive are those of the source. Cut-off read from the data, not from the text of the source: active = GI50 up to about 1.1 µM and inactive = higher.
What was measured:
Assay in all cases: NCI-60 cell line screen, 48 h
[1] = tested on: HOP-92
[2] = tested on: SK-MEL-2
[3] = tested on: MDA-MB-231
[4] = tested on: NCI/ADR-RES
[5] = tested on: NCI-H522
[6] = tested on: UO-31
[7] = tested on: SK-MEL-5
[8] = tested on: SW-620
[9] = tested on: KM12
[10] = tested on: CCRF-CEM
[11] = tested on: NCI-H23
[12] = tested on: HT-29
[13] = tested on: DU-145
[14] = tested on: HCC 2998
[15] = tested on: HOP-62
[16] = tested on: RXF 393
[17] = tested on: SK-OV-3
[18] = tested on: TK-10
[19] = tested on: SF-539
[20] = tested on: Hs-578T

Measured: GI50

O=C(c1ccccc1)N1C(=S)N(c2ccccn2)C(=N/c2ccccc2)/C1=N\c1ccccc1
inactive: [1] 6.67 µM | [2] 13.6 µM | [3] 23.3 µM | [4] 10.5 µM | [5] 2.16 µM | [6] 9.68 µM | [7] 19.1 µM | [8] 5.19 µM | [9] 5.43 µM | [10] 2.57 µM | [11] 6.4 µM | [12] 11.5 µM | [13] > 61.9 µM | [14] > 93.5 µM | [15] 27.4 µM | [16] 5.11 µM | [17] 43.6 µM | [18] 25.1 µM | [19] 12.9 µM

O=C(O)CSCc1cc2c(O)c(c1)Cc1cc(CSCC(=O)O)cc(c1O)Cc1cc(CSCC(=O)O)cc(c1O)Cc1cc(CSCC(=O)O)cc(c1O)C2
inactive: [1] > 100 µM | [2] > 100 µM | [4] > 100 µM | [5] > 100 µM | [6] > 100 µM | [8] > 100 µM | [9] > 100 µM | [20] > 100 µM | [10] > 100 µM | [11] > 100 µM | [12] > 100 µM | [13] > 100 µM | [14] > 100 µM | [15] > 100 µM | [16] > 100 µM | [17] > 100 µM | [18] > 100 µM | [19] > 100 µM

CNC(=O)N(CCC#N)CCN(CCN(C(=O)NC)c1ccccc1)C(=O)NC
inactive: [1] > 100 µM | [2] > 100 µM | [3] > 100 µM | [4] > 100 µM | [5] > 100 µM | [6] > 100 µM | [7] > 100 µM | [8] > 100 µM | [9] > 100 µM | [10] > 100 µM | [11] > 100 µM | [12] > 100 µM | [13] > 100 µM | [14] > 100 µM | [15] > 100 µM | [16] > 100 µM | [17] > 100 µM | [18] > 100 µM | [19] > 100 µM

CC1(C)CC2C(/C1=N/O)C1(C)CCCC2(C)C1O (stereo not drawn)
inactive: [1] > 100 µM | [2] > 100 µM | [4] > 100 µM | [5] > 100 µM | [6] > 100 µM | [7] > 100 µM | [8] > 100 µM | [9] > 100 µM | [20] > 100 µM | [10] > 100 µM | [11] > 100 µM | [12] > 100 µM | [13] > 100 µM | [15] > 100 µM | [17] > 100 µM | [18] > 100 µM

CCn1ncc2c1nc(-c1ccccc1)c[n+]2[O-]
inactive: [2] > 100 µM | [4] > 100 µM | [5] 90.4 µM | [6] 62.8 µM | [9] > 100 µM | [20] 61.1 µM | [10] > 100 µM | [11] > 100 µM | [12] > 100 µM | [13] 5.82 µM | [15] 2.22 µM | [19] > 100 µM

Cc1cc(O)c(O)c(Oc2cc(C)cc(O)c2O)c1
inactive: [1] 16.6 µM | [2] 21.5 µM | [3] 20.3 µM | [5] 15 µM | [6] 18.5 µM | [7] 33.9 µM | [8] 16.9 µM | [9] 22 µM | [20] 48.4 µM | [10] 2.37 µM | [11] 25.6 µM | [12] 20.8 µM | [13] 23.3 µM | [14] 32 µM | [15] 67.6 µM | [16] 24.5 µM | [17] 36.8 µM | [18] 17.1 µM | [19] 23.3 µM

COc1ccc(/C=C2\CCCCCC2=O)cc1
inactive: [1] > 100 µM | [2] > 100 µM | [3] > 100 µM | [4] > 100 µM | [5] > 100 µM | [6] > 100 µM | [7] > 100 µM | [8] > 100 µM | [9] > 100 µM | [10] > 100 µM | [11] > 100 µM | [12] > 100 µM | [13] > 100 µM | [14] > 100 µM | [15] > 100 µM | [16] > 100 µM | [17] > 100 µM | [18] > 100 µM | [19] > 100 µM

CC(C#N)Nc1ccc(Oc2ccc(C(C)(C)c3ccc(Oc4ccc(NC(C)C#N)cc4)cc3)cc2)cc1 (stereo not drawn)
inactive: [1] 31.4 µM | [2] > 100 µM | [3] > 100 µM | [4] > 100 µM | [6] 5.08 µM | [7] 50.6 µM | [8] > 100 µM | [9] > 100 µM | [20] 18 µM | [11] 40.9 µM | [12] > 100 µM | [14] 22.3 µM | [16] > 100 µM | [17] > 100 µM | [18] > 100 µM | [19] > 100 µM
